Test results from US20110171279A1, “POLYETHYLENIMINE BIOCIDES” (NDSU RESEARCH FOUNDATION, priority 2009, published 2011).
Like-named read-outs stand apart in the source and are kept apart here. Values belong to the compound of their own block, whether it stands above or below them.

Experiments:
Assay type in all cases: cell-based
[1] = tested on: Staphylococcus epidermidis; assay: Growth reduction / MIC test against Staphylococcus epidermidis in tryptic soy broth, absorbance 600 nm; conditions: for MIC: Staphylococcus epidermidis, read-out: S. epidermidis MIC; for Percent reduction in growth of Staphylococcus epidermidis: Table 9
Description: (§1) The antimicrobial properties of the Formulations were determined by measuring the minimum inhibitory concentration (MIC) or by using an adaptation of the MIC test. […] Additional details of the MIC method can be found at Andrews, J. M., Journal of Antimicrobial Chemotherapy (2001) 48, 5-16, incorporated herein by reference in its entirety.
(§2) In accordance with the MIC test, working solutions for each Formulation were prepared by dissolving 100 mg of each Formulation in 10 mL of methanol (Sigma-Aldrich) to generate a 10 mg/mL solution. Next, 10 ml of tryptic soy broth was spiked with 200 μL of the mg/mL Formulation solution to achieve a final concentration of 0.2 mg/mL.
(§3) 0.2 mL of each concentration of each Formulation (spiked with S. epidermidis) was added in triplicate to a 96-well plate. Additionally, 0.2 mL of tryptic soy broth without any S. epidermidis or Formulation and 0.2 mL of tryptic soy broth with S. epidermidis, but no Formulations, served as negative and positive growth controls, respectively. Plates were then placed in an incubator, at 37° C. for 24 hrs (with shaking), and then measured for growth by taking absorbance measurements at 600 nm with a multi-well plate spectrophotometer (Synergy HT microplate reader, BioTek Instruments, Winooski, Vt.). The efficacy of each Formulation was measured by determining the percent reduction in bacterial growth as a function of Formulation concentration.
For comparison purposes a benzylpiperidino biocide (“Reference 1”) was prepared using ETCS and synthetic methods similar to those described in U.S. Pat. No. 5,036,077, issued Jul. 30, 1991, and incorporated by reference in its entirety. To make Reference 1, 3.9 g of ETCS and 2 g of 4-benzylpiperidine were reacted in 30 mL of methanol. The mixture was heated at 65° C. for 48 hours. Reaction completion was confirmed by ^1H NMR, ^13C NMR, HMQC (2D) NMR and elemental analysis. The antimicrobial activity of Formulations 69-77 and Reference 1 toward S. epidermidis was measured by determining the percent reduction in bacterial growth as a function of concentration, as was done above in EXAMPLE 3.

[2] = tested on: Escherichia coli; assay: Growth reduction / MIC test against Escherichia coli in Luria-Bertani broth, absorbance 600 nm; conditions: for MIC: Escherichia coli, read-out: E. Coli MIC; for Percent reduction in growth of Escherichia coli: Table 10
Description: as §1
as §2, with “Luria-Bertani” for “tryptic soy”
as §3, with “E. coli)” for “S. epidermidis)”, “Luria-Bertani” for “tryptic soy”, “E. coli” for “S. epidermidis”, “E. coli,” for “S. epidermidis,”, “HT).” for “HT microplate reader, BioTek Instruments, Winooski, Vt.).”
Next, the antimicrobial activity of Formulations 69-77 and Reference 1 toward E. coli was measured by determining the percent reduction in bacterial growth as a function of concentration. The results for the examples were compared to various PEIs used to produce the examples.

[3] = tested on: Cellulophaga lytica; assay: Growth reduction / MIC test against Cellulophaga lytica; conditions: for MIC: Cellulophaga lytica
Description: as §1
as §2, with “ml of Guillard's F/2 medium was spiked” for “ml of tryptic soy broth was spiked”, “of the 10 mg/mL Formulation” for “of the mg/mL Formulation”
(§4) 0.2 mL of each concentration of each Formulation (spiked with C. lytica) was added in triplicate to a 96-well plate. Additionally, 0.2 mL of Guillard's F/2 medium without any C. lytica or Formulation and 0.2 mL of Guillard's F/2 medium with C. lytica, but no Formulations, served as negative and positive growth controls, respectively. The 96-well plates were placed in an illuminated growth cabinet with a 16:8 light:dark cycle (photon flux density 33 μmol m^−2 s^−1) for 48 hrs at 18° C. and measured for chlorophyll fluorescence using a multi-well plate spectrophotometer (excitation: 360 nm; emission: 670 nm). The efficacy of each Formulation was measured by determining the percent reduction in diatom growth as a function of Formulation concentration.
(§5) The antimicrobial activity of Formulations 10-12, also derived from ETCS and PEI, was determined toward a suite of marine microorganisms, namely, Pseudoalteromonas atlantica, Cellulophaga lytica, Cobetia marina, and Halomonas pacifica. The antimicrobial activity of Formulations 10-12 was determined toward these marine microorganisms according to the methods of EXAMPLES 5-7. The MIC for each Formulation against each strain is compared to that of the PEI, ETCS, and TCS (alone) in Table 7.

[4] = tested on: Halomonas pacifica; assay: Growth reduction / MIC test against Halomonas pacifica; conditions: for MIC: Bisbaumannia pacifica
Description: as §1
as §2, with “ml of Guillard's F/2 medium was spiked” for “ml of tryptic soy broth was spiked”, “of the 10 mg/mL Formulation” for “of the mg/mL Formulation”
0.2 mL of each H. pacifica concentration was added in triplicate to a 96-well plate. Additionally, 0.2 mL of Guillard's F/2 medium without any H. pacifica or Formulation and 0.2 mL of Guillard's F/2 medium with H. pacifica, but no Formulations, served as negative and positive growth controls, respectively. The 96-well plates were placed in an illuminated growth cabinet with a 16:8 light:dark cycle (photon flux density 33 μmol m^−2 s^−1) for 48 hrs at 18° C. and measured for chlorophyll fluorescence using a multi-well plate spectrophotometer (excitation: 360 nm; emission: 670 nm). The efficacy of each Formulation was measured by determining the percent reduction in diatom growth as a function of Formulation concentration.
as §5

[5] = tested on: Navicula incerta; assay: Growth reduction / MIC test against Navicula incerta in Guillard's F/2 medium, chlorophyll fluorescence; conditions: Table 12; read-out: N. incerta MIC
[6] = tested on: Navicula incerta; assay: as above
Description: as §1
as §2, with “ml of Guillard's F/2 medium was spiked” for “ml of tryptic soy broth was spiked”, “of the 10 mg/mL Formulation” for “of the mg/mL Formulation”
as §4, with “N. incerta)” for “C. lytica)”, “N. incerta” for “C. lytica”, “N. incerta,” for “C. lytica,”

[7] = tested on: Candida albicans; assay: Antifungal activity, percent reduction in fungal growth of Candida albicans; conditions: Table 11
Description: Additionally, the antifungal activity of Formulations 69-77 and Reference 1 toward Candida albicans was measured by determining the percent reduction in fungal growth as a function of concentration.

[8] = Table 12, read-out: C. lytica MIC
[9] = Table 12, read-out: H. pacifica MIC
[10] = Formulation Concentration 0.78125 μg/mL
[11] = Formulation Concentration 1.5625 μg/mL
[12] = Formulation Concentration 3.125 μg/mL
[13] = Formulation Concentration 6.25 μg/mL
[14] = Formulation Concentration 12.5 μg/mL
[15] = Formulation Concentration 25 μg/mL
[16] = Formulation Concentration 50 μg/mL
[17] = Formulation Concentration 100 μg/mL

MIC ([1]; Table 12): > 100 µg/mL
MIC ([2]; Table 12): > 100 µg/mL
MIC [3, 8]: > 100 µg/mL
MIC [4, 9]: > 100 µg/mL
MIC [5]: > 100 µg/mL
SMILES: COCCNCCOC [bis(methoxyethyl), bis(2-methoxyethyl)amine]

MIC ([1]; Table 12): > 100 µg/mL
MIC ([2]; Table 12): > 100 µg/mL
MIC [3, 8]: > 100 µg/mL
MIC [4, 9]: > 100 µg/mL
MIC [5]: > 100 µg/mL
SMILES: NCCN [ethylenediamine]

S. epidermidis MIC ([1]; Table 12): >100 µg/mL
E. Coli MIC ([2]; Table 12): >100 µg/mL
N. incerta MIC ([6]; Table 12): >100 µg/mL
C. lytica MIC ([3]; Table 12): >100 µg/mL
H. pacifica MIC ([4]; Table 12): >100 µg/mL
SMILES: CC(O)CNCC(C)O (stereo not drawn) [diisopropanolamine]

SMILES: Clc1cc(Cl)c(OCC2CO2)c(Cl)c1 (stereo not drawn) [EDCP, 2-((2,4,6-trichlorophenoxy)methyl)oxirane]
Percent reduction in growth of Staphylococcus epidermidis [1, 10]: 7.58%
Percent reduction in growth of Staphylococcus epidermidis [1, 11]: 6.34%
Percent reduction in growth of Staphylococcus epidermidis [1, 12]: 5.04%
Percent reduction in growth of Staphylococcus epidermidis [1, 13]: 8.44%
Percent reduction in growth of Staphylococcus epidermidis [1, 14]: 6.20%
Percent reduction in growth of Staphylococcus epidermidis [1, 15]: 8.90%
Percent reduction in growth of Staphylococcus epidermidis [1, 16]: 5.00%
Percent reduction in growth of Staphylococcus epidermidis [1, 17]: 0.00%
Percent reduction in growth of Escherichia coli [2, 10]: 14.85%
Percent reduction in growth of Escherichia coli [2, 11]: 1.60%
Percent reduction in growth of Escherichia coli [2, 12]: 0.00%
Percent reduction in growth of Escherichia coli [2, 13]: 55.43%
Percent reduction in growth of Escherichia coli [2, 14]: 52.95%
Percent reduction in growth of Escherichia coli [2, 15]: 61.26%
Percent reduction in growth of Escherichia coli [2, 16]: 1.38%
Percent reduction in growth of Escherichia coli [2, 17]: 91.65%
Percent reduction in growth of Candida albicans [7, 10]: 11.66%
Percent reduction in growth of Candida albicans [7, 11]: 15.25%
Percent reduction in growth of Candida albicans [7, 12]: 0.00%
Percent reduction in growth of Candida albicans [7, 13]: 1.45%
Percent reduction in growth of Candida albicans [7, 14]: 0.00%
Percent reduction in growth of Candida albicans [7, 15]: 0.00%
Percent reduction in growth of Candida albicans [7, 16]: 21.55%
Percent reduction in growth of Candida albicans [7, 17]: 25.83%

MIC ([1]; Table 12): > 100 µg/mL
MIC ([2]; Table 12): > 100 µg/mL
MIC [3, 8]: > 100 µg/mL
MIC [4, 9]: > 100 µg/mL
MIC [5]: > 100 µg/mL
SMILES: OCCNCCO [diethanolamine]

SMILES: CNc1ccccc1 [N-methyl aniline, N-methylaniline]
MIC [1]: > 100 µg/mL
MIC [2]: > 100 µg/mL
MIC ([6]; read-out: N. incerta MIC): > 100 µg/mL
MIC ([3]; read-out: C. lytica MIC, Table 12): > 100 µg/mL
MIC ([4]; read-out: H. pacifica MIC, Table 12): > 100 µg/mL

SMILES: C=CCN [allyl amine]
MIC ([1]; Table 12): > 100 µg/mL
MIC ([2]; Table 12): > 100 µg/mL
MIC [3, 8]: > 100 µg/mL
MIC [4, 9]: > 100 µg/mL
MIC [5]: > 100 µg/mL
